Measurements from article PMC11292009, “Mapping protein binding sites by photoreactive fragment pharmacophores” (Communications Chemistry, 2024).
Several values for one entry are separate records, joined by “and”; a condition that tells them apart may be missing. Equal entries are not always repeated.

How the values were obtained:
Type in all cases: binding
[1] = system: carbonic anhydrase II (CA); test: Intact protein MS photoaffinity labeling screen, carbonic anhydrase; conditions: intact protein MS after 10 min irradiation
Summary of the method: (§1)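 Fragments tested one per well, each incubated 15 min with protein to form non-covalent complexes before photo-crosslinking. Labeling read directly by intact protein MS as mass additions matching fragment adducts, expressed as labeling %.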

BRD4-BD1 = system: T1, BRD4-BD1; test: Intact MS photoaffinity labeling screen, BRD4-BD1 (302 nm, LCMS-TOF); conditions: for MS labeling percentage, BRD4: BRD4-BD1, 302 nm 10 min; for BRD4-BD1: experimental hit status flag (0/1); for experimental hit status BRD4-BD1: 0/1 flag
T1 construct: screened the PhP library against the first bromodomain of BRD4 (BRD4-BD1); purchased GSK/GenScript
Summary of the method: (§2)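 Labeling detected as mass additions in deconvoluted intact-protein LCMS-TOF spectra. Protein at 1 μM in PBS was first mixed with one fragment per well on ice for 15 min, followed by 10 min UV exposure at 302 nm.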

KRas^G12D = system: T2, KRas^G12D; test: Intact MS photoaffinity labeling screen, KRas G12D (302 nm, LCMS-TOF); conditions: for MS labeling percentage, KRas: KRas G12D, 302 nm 10 min; for KRAS-G12D: experimental hit status flag (0/1); for experimental hit status KRAS-G12D: 0/1 flag
T2 construct: purchased GSK/GenScript
Summary of the method: as §2

lysozyme (Lyo) = test: Intact protein MS photoaffinity labeling screen, lysozyme; conditions: intact protein MS after 10 min irradiation
Summary of the method: as §1

myoglobin (Myo) = test: Intact protein MS photoaffinity labeling screen, myoglobin; conditions: intact protein MS after 10 min irradiation
Summary of the method: as §1

STAT5B-NTD [2] = system: T3, STAT5B-NTD; test: Intact MS photoaffinity labeling screen, STAT5B-NTD (365 nm, UHPLC-MS); conditions: for MS labeling percentage, STAT5B: STAT5B-NTD, 365 nm 10 min, no photocatalyst; for STAT5B-NTD: experimental hit status flag (0/1); for experimental hit status STAT5B-NTD: 0/1 flag;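 for MS labeling percentage, STAT5B: 0.17 µL of 100 mM DMSO fragment stock added to the protein sample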
T3 construct: His-SUMO (N, cleaved yes); made in house; host or cells: E. coli BL21 RILP
Summary of the method: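 UV irradiation at 365 nm for 10 min at 4 °C. Labeling read by intact-protein UHPLC-MS, positive ion mode, m/z 100–2000.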

STAT5B-NTD [3] = system: T3, STAT5B-NTD; test: Intact MS labeling screen, STAT5B-NTD conjugated with photocatalyst Ir-G2-PEG3-COOH (450 nm); conditions: 450 nm 10 min;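 note: 0.14 µL of 100 mM DMSO fragment stock added to the conjugate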
Summary of the method: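 Ir-G2-PEG3-COOH photocatalyst (10 eq) activated 30 min with EDC/NHS/BOP, then conjugated to STAT5B-NTD (7 µM) overnight at RT or 1 h at 37 °C in dark. PhP added, 1 h dark, then 450 nm irradiation 10 min at 4 °C; labeling read by intact LC-MS, positive ion mode, m/z 100–2000.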

[4] = system: CA, Lyo, Myo, BRD4-BD1, KRas G12D, STAT5B-NTD; test: Intact MS labeling compared over all protein targets; conditions: for Labeling of the other protein targets (vs. preferred target): each of the other targets
Experimental: Using a plate-based format with one fragment per well, each fragment was incubated with the target proteins for 15 min to allow for the formation of non-covalent interactions. The plate was then irradiated at 302 or 365 nm for 10 min to enable the bound fragments to crosslink to the protein[26]. Finally, the results were directly analyzed from the plate using intact protein mass spectrometry by observing the mass additions that correspond to successful labeling (Fig. 2c, for labeling % values see Supplementary data). The library was first characterized against three benchmark proteins like carbonic anhydrase (CA), lysozyme (Lyo), and myoglobin (Myo).
The PhP library was screened against BRD4-BD1 and KRas^G12D as follows. Using a Labcyte Echo® 555 Liquid Handler, 150 nL of fragment solution (20 mM) was transferred into a Greiner 384 low-volume plate (white) to prepare the probe plate. The probe plate was placed on ice. 15 μL of protein stock solution (1 μM BRD4-BD1 (GSK/GenScript) or KRas^G12D (GSK/GenScript) in PBS buffer) was dispensed into wells containing fragments. The plate was left on ice for 15 min for incubation, then irradiated at 302 nm for 10 min, and centrifuged (1000 rpm, 1 min) to remove any bubbles. The plate was then analyzed by LCMS-TOF mass spectrometry (Agilent 1200 series liquid chromatography with Agilent Bio-HPLC PLRP-S (1000 Å, 5 µm × 50 mm × 1.0 mm, PL1312-1502) reverse phase HPLC column at 70 °C equipped with an Agilent G6224 time-of-flight (ToF), see Supplementary Note 2 for the full protocols). The deconvoluted spectra were analyzed using R Studio software.
During the analysis, the column temperature was maintained at a constant 60 °C, and a sample volume of 3 µL was injected for each analysis. Data acquisition was conducted in positive ion mode within the m/z 100–2000 (mass-to-charge ratio) range. For the full protocol and spectra of the hits, see Supplementary Note 2.

[5] = PhP library sheet "PhP", binary flag printed as 0 or 1, key not given
[6] = hit status flag, 1 = hit, 0 = no hit

Structure (SMILES)	MS labeling percentage, CA [1] [%]	MS labeling percentage, BRD4 (BRD4-BD1) [%]	BRD4-BD1 (BRD4-BD1)	MS labeling percentage, KRas (KRas^G12D) [%]	KRAS-G12D (KRas^G12D)	MS labeling percentage, Lyo (lysozyme (Lyo)) [%]	MS labeling percentage, Myo (myoglobin (Myo)) [%]	MS labeling percentage, STAT5B (STAT5B-NTD [2]) [%]	STAT5B-NTD (STAT5B-NTD [2])	MS labeling percentage, STAT5B+photocat (STAT5B-NTD [3]) [%]	Labeling of the other protein targets (vs. preferred target) [4]	experimental hit status BRD4-BD1 (BRD4-BD1)	experimental hit status KRAS-G12D (KRas^G12D)	experimental hit status STAT5B-NTD (STAT5B-NTD [2])	other results
CC(Cc1ccc(O)c(O)c1)NC(=O)CCC1(C)N=N1 (centres unmarked) [PhP001, N1=NC1(C)CCC(=O)NC(C)Cc2ccc(O)c(O)c2]	0	0.6	0	0	0	19.2	0.2	0	0	0	> 1% and < 1%	–	–	–	–
Cn1ccnc1CCNC(=O)CCC1(C)N=N1 [PhP003, Cn1ccnc1CCNC(=O)CCC2(C)N=N2]	4.7	1.1	0	0.8	0	0	0.2	0	0	0.8	> 1.1% and < 1.1%	–	–	–	–
CC1(CCC(=O)NC2CCN(c3ccc(F)cc3)CC2)N=N1 [PhP012, N1=NC1(C)CCC(=O)NC2CCN(CC2)c3ccc(F)cc3]	0.9	2.8	0	15.8	0	2.6	1	0	0	1	> 3% and < 3%	–	–	–	–
COc1ccc(S(=O)(=O)N2CCC(NC(=O)CCC3(C)N=N3)CC2)cc1 [PhP018, COc1ccc(cc1)S(=O)(=O)N2CCC(CC2)NC(=O)CCC3(C)N=N3]	17.7	65.5	–	42	–	3.7	19.9	0	–	0.7	–	0	0	0	Number of proteins labeled ([4]; of the six protein targets): four
COc1ccc(CCNC(=O)CCC2(C)N=N2)c2ccccc12 [PhP034, c1cccc(c12)c(OC)ccc2CCNC(=O)CCC3(C)N=N3]	4.7	10.6	–	67.8	–	1.7	1.7	0	–	1.1	–	0	0	0	Number of targets labeled in higher than 10% amount ([4]; of the six protein targets): two
CC1(CCC(=O)NCCNS(=O)(=O)c2cccc([N+](=O)[O-])c2)N=N1 [PhP035, N1=NC1(C)CCC(=O)NCCNS(=O)(=O)c2cccc(c2)N(=O)=O]	1.8	3.7	–	2	–	0.3	1.3	0	–	9.7	–	0	0	0	Labeling efficiency over all protein targets (mean ± spread) [4]: 1.5 ± 1.2%
Cc1cccc(-c2cnc(CNC(=O)CCC3(C)N=N3)[nH]2)c1 [PhP037, Cc1cccc(c1)-c2cnc([nH]2)CNC(=O)CCC3(C)N=N3]	0.9	4.8	–	11.2	–	0	1.4	2	–	1.5	–	0	0	0	Labeling efficiency over all protein targets (mean ± spread) [4]: 3.4 ± 3.8%
Cn1nccc1C(=O)NCCNC(=O)CCC1(C)N=N1 [PhP095, Cn1nccc1C(=O)NCCNC(=O)CCC2(C)N=N2]	0.2	0.4	–	0.1	–	0	0.1	0	–	2.4	–	–	–	–	BRD4-BD1 (experimental hit status) (BRD4-BD1; [5]): 0; KRAS-G12D (experimental hit status) (KRas^G12D; [5]): 0; STAT5B-NTD (experimental hit status) (STAT5B-NTD [2]; [5]): 0
CC1(CCC(=O)NCCN2CCN(c3ccc(C(F)(F)F)cn3)CC2)N=N1 [PhP096, N1=NC1(C)CCC(=O)NCCN2CCN(CC2)c3ccc(cn3)C(F)(F)F]	0	0.3	–	0	–	0	0.1	0	–	1.1	–	–	–	–	BRD4-BD1 (experimental hit status) (BRD4-BD1; [5]): 0; KRAS-G12D (experimental hit status) (KRas^G12D; [5]): 0; STAT5B-NTD (experimental hit status) (STAT5B-NTD [2]; [5]): 0
CN(C)CC(=O)Nc1cccc(NC(=O)CCC2(C)N=N2)c1 [PhP100, CN(C)CC(=O)Nc1cccc(c1)NC(=O)CCC2(C)N=N2]	0.1	0.6	–	0	–	0	0.1	1	–	0	–	–	–	–	BRD4-BD1 (experimental hit status) (BRD4-BD1; [6]): 0; KRAS-G12D (experimental hit status) (KRas^G12D; [6]): 0; STAT5B-NTD (experimental hit status) (STAT5B-NTD [2]; [6]): 0
